{"source": "patent US10081615B2", "about": "“Sulfamate derivative compounds for use in treating or alleviating pain” (Bio-Pharm Solutions Co., Ltd., priority 2013, dated 2018)", "key": {"[1]": {"tested_on": "hot plate withdrawal latency", "experiment": "Hot-plate test", "format": "in vivo, ICR mice", "details": "mouse, oral", "procedure": "To examine the pain relief effect of the sulfamate derivative compounds, a hot-plate test was conducted referring to Current Protocols in Neuroscience; Behavioral Neuroscience Unit 8.9.\nICR mice (male, 30-35 g; Orient Bio, Korea) were habituated before the test in the test room for 1 hour. Animals were fasted 2 hr before administration of the compounds. […] All compounds were dissolved in a vehicle of 30% (v/v) PEG 400 or 20% (v/v) Tween 80. The control group was treated with vehicle without treatment compounds.\n0.5 hr after the administration of compounds, the mice were put on a hot plate pre-heated to 55±1° C. (Hu, X. et al, 2008), and then, the withdrawal latency was measured (cut-off time: 30 sec) until the point when each mouse was taking a paw off from the plate, shaking, licking a paw or hind leg, or jumping from the plate."}, "[2]": {"tested_on": "Vincristine-induced pain model", "experiment": "Antiallodynic activity in the vincristine-induced pain model (von Frey)", "format": "in vivo, Sprague-Dawley rats", "details": "rat, intraperitoneal, 0.5 h; for ED50: ip", "procedure": "Male, Sprague-Dawley rats (300-320 g, Nara Bio, Korea) were habituated for 1 week before surgery and allowed free access to food and water throughout the experimentation. Room temperature and humidity were maintained at 24±2° C. and 50±10%, respectively.\nThe vincristine-induced pain model was established by the procedure of Natsuko et al. (2001) with minor modifications. Vincristine was intravenously infused continuously for 14 days using a mini-osmotic pump as follows: Vincristine sulfate solution (Hospira, Australia) was diluted with 0.9% saline to a final dose of 30 ug/kg. The pumps (Alzet Model 2002, USA) were filled with the vincristine solution and primed by incubation at 37° C. for 4 h before the infusion. Briefly, animals were put under gaseous anesthesia with isoflurane and NO with a 4:4 flow ratio. A catheter made from PE-60 tubing was inserted into an external jugular vein in the rat. Sham controls were prepared in the same manner, with the external jugular vein exposed, but not cut down. Preparation of the vehicle controls were identical to the group treated with compound, except for administration of vehicles without compound in the vehicle control group.\nTactile sensitivity (mechanical allodynia) was evaluated using von Frey monofilaments before and after treatment, and the animals were included in the study only if the withdrawal threshold value was less than 4 g. One week after surgery, vincristine-infused animals (n=6), sham-operated animals (n=12) and vehicle-operated (n=18) animals were tested for tactile sensitivity with von Frey monofilaments with 3 trials in each animal. All animals were placed in a stainless steel mesh chamber and habituated for 30 min in the test cage. The tactile sensitivity for the ipsilateral hind paw was measured using the up-and-down method (Dixon, 1980) with seven von Frey monofilaments (0.4, 1, 2, 4, 6, 8, and 15 g) in 3 trials. The tactile sensitivity test was followed by Dixon's method. The 50% paw withdrawal threshold for each paw was calculated using the following formula: [Xth] log=[vFr] log+ky where [vFr] is the force of the last von Frey used, k=0.2249 which is the average interval (in log units) between the von Frey monofilaments, and y is a value that depends upon the pattern of withdrawal responses (Dixon, 1980).\n[…] The test was performed at the peak time of efficacy (0.5 hr) after compound administration.\nThe relative values compared to the sham (% control) were calculated and are shown in Table 11, which show an antiallodynic effect of the compound of examples in the vincristine-induced pain model in rats."}}}
{"smiles": "CC1(C)Oc2ccccc2[C@@H](COS(N)(=O)=O)O1", "note": "[Example 2, ((S)-2,2-dimethyl-4H-benzo[d][1,3]dioxin-4-yl)methyl sulfamate]", "values": [{"measurement": "ED50", "setting": "[1]; 0.5 h", "result": 170, "unit": "mg/kg"}]}
{"smiles": "CC1(C)Oc2ccccc2[C@H](COS([NH-])(=O)=O)O1.[Na+]", "note": "[Example 58, Sodium (R)-(((2,2-dimethyl-4H-benzo[d][1,3]dioxin-4-yl)methoxy)sulfonyl)amide Trihydrate]", "values": [{"measurement": "ED50", "setting": "[2]", "result": 6.2, "unit": "mg/kg"}]}
{"smiles": "CC1(C)Oc2ccccc2C(COS([NH-])(=O)=O)O1.[Na+]", "note": "(stereo not shown) [Example 60, Sodium (((2,2-dimethyl-4H-benzo[d][1,3]dioxin-4-yl)methoxy)sulfonyl)amide Trihydrate]", "values": [{"measurement": "ED50", "setting": "[2]", "result": 2.4, "unit": "mg/kg"}, {"measurement": "Hot plate test: effect (%) compared to control", "setting": "[1]; 170 mg/kg administered, time not given", "result": "(196.2%)"}]}
{"smiles": "[NH-]S(=O)(=O)OC[C@H]1OC2(CCCC2)Oc2ccccc21.[Na+]", "note": "[Example 65, Sodium (S)-(((4H-spiro[benzo[d][1,3]dioxine-2,1′-cyclopentan]-4-yl)methoxy)sulfonyl)amide]", "values": [{"measurement": "ED50", "setting": "[2]", "result": 8.2, "unit": "mg/kg"}, {"measurement": "melting point", "result": "121.2 to 131.9", "unit": "°C"}]}
{"smiles": "CC1(C)Oc2ccccc2[C@H](COS([NH-])(=O)=O)O1.[K+]", "note": "[Example 70, Potassium (R)-(((2,2-dimethyl-4H-benzo[d][1,3]dioxin-4-yl)methoxy)sulfonyl)amide]", "values": [{"measurement": "Vincristine model: effect (%) compared to control", "setting": "[2]; 2.4 mg/kg administered", "result": "(36.2%, 0.5 h)"}]}
